Laboratory results reported in BindingDB's records for doi:10.7270/Q2V40ST1 (Burnham Center For Chemical Genomics, 2012).

biological target: Polyadenylate-binding protein 1 (Homo sapiens, UniProt P11940); assay: PABP1 MLLE–PAM2 interaction inhibitors, dose response, miRNA deadenylation inhibitor project, biochemical, fluorescence polarization, Cy5-PAM2 peptide, secondary (AID 602260)
Sequence (P11940 whole entry): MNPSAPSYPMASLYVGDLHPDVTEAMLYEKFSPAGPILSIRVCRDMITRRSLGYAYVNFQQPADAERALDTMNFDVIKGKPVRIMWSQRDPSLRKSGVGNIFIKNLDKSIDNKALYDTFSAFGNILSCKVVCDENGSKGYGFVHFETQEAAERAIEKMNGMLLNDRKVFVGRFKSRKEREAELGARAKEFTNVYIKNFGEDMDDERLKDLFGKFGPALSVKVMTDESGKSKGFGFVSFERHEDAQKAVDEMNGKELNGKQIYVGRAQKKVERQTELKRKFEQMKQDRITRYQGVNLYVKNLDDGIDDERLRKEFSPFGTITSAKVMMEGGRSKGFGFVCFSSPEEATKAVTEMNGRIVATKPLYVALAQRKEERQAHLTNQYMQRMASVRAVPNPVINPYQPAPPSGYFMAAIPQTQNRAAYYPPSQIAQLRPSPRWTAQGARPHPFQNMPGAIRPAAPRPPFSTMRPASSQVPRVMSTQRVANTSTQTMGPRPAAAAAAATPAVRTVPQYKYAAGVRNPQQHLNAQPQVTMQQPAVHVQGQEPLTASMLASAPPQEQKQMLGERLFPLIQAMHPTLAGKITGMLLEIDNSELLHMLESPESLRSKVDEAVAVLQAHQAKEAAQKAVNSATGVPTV

IC50, > 66 µM:
CCOC(=O)c1ccc(NC(=O)Cc2sc3ncnn3c2O)cc1
O=C(O)CSc1cc(O)n(-c2ccc(Cl)c(Cl)c2)c1O
Cc1ccc(NC(=O)Cc2sc(=O)n(-c3ccccc3)c2O)cc1
COc1cc2c(cc1OC)C(c1ccccc1O)N(c1cc(O)n(-c3ccccc3)c1O)CC2 (stereo not drawn)
O=C(Cc1sc(=O)n(-c2ccccc2)c1O)Nc1ccccc1 [2-(2,4-diketo-3-phenyl-thiazolidin-5-yl)-N-phenyl-acetamide]
CCSc1sccc1C1C2=C(CCCC2=O)N(c2cccnc2)C(=N)C1C#N (stereo not drawn) [2-azanyl-4-(2-ethylsulfanylthiophen-3-yl)-5-oxidanylidene-1-pyridin-3-yl-4,6,7,8-tetrahydroquinoline-3-carbonitrile]
N#CC1C(=N)C2=C(N3CCCCC3)CCCC2C1(C#N)C#N (stereo not drawn) [3-Amino-4-piperidin-1-yl-5,6,7,7a-tetrahydro-indene-1,1,2-tricarbonitrile]
CCOc1cc(C2C3=C(CCCC3=O)N=C3CCCC(=O)C32)ccc1OCCO (stereo not drawn) [9-[3-ethoxy-4-(2-hydroxyethoxy)phenyl]-2,3,4,5,6,7,9,10-octahydroacridine-1,8-dione]
COc1ccc(NC(=O)Cc2sc3ncnn3c2O)cc1 [MLS000115464]
Cc1cc(C(F)(F)F)nc(SCC(=O)Nc2nc(O)c(C)s2)n1 [N-(5-methyl-4-oxidanylidene-1,3-thiazol-2-yl)-2-[4-methyl-6-(trifluoromethyl)pyrimidin-2-yl]sulfanyl-ethanamide]
CC(C)C1=NC(=O)NC2CCCCC12 (stereo not drawn) [SMR000060291]
COc1ccc(C2=Nc3nnnn3C(c3ccc(F)cc3)C2)cc1 (stereo not drawn) [SMR000108015]
CCOC(=O)CC1=C(C(=O)OCC)C(c2ccc(C)o2)C(C#N)C(=N)O1 (stereo not drawn) [ethyl 6-amino-5-cyano-2-(2-ethoxy-2-oxoethyl)-4-(5-methyl-2-furyl)-4H-pyran-3-carboxylate]
